This passage reports Ki results from patent US8367695B2, “Condensed tetrahydroquinoline derivative and use thereof for medical purposes” (Mitsubishi Tanabe Pharma Corporation, priority 2007, dated 2013).

In one assay the target is T1, human recombinant progesterone receptor-B (PRB) (Homo sapiens, UniProt P06401).
T1 construct: purchased Invitrogen (Carlsbad, Calif.)
T1 sequence (P06401 1-933): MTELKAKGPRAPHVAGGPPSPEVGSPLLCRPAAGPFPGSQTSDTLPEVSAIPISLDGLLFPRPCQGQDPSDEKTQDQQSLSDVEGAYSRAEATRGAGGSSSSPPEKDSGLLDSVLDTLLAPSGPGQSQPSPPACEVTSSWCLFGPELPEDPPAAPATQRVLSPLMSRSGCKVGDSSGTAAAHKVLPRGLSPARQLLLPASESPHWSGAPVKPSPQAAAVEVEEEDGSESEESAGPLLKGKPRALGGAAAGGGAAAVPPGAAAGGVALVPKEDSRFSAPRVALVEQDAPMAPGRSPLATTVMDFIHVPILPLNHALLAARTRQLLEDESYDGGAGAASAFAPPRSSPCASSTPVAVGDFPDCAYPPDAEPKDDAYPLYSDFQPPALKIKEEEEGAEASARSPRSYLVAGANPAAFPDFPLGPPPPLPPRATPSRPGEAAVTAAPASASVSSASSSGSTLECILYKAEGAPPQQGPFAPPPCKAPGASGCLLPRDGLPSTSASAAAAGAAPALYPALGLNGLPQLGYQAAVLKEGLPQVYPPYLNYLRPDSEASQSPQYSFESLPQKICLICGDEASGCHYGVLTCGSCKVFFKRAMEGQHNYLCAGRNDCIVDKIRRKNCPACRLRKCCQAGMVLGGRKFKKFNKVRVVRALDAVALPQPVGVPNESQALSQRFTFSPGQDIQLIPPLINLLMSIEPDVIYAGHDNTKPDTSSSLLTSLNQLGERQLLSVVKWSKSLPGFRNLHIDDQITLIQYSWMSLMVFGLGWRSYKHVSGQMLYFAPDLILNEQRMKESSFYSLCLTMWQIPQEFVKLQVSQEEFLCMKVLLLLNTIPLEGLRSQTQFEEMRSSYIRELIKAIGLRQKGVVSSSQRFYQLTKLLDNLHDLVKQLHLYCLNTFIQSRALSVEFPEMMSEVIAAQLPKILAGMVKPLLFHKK
Briefly: Radioactive ligand binding test, PRB cytosol, [3H]-Prog.
Settings: not given
The text has this: Radioactive Ligand Binding Test Using Cytosols of Human Glucocorticoids Receptor, Progesterone Receptor and Mineralocorticoid Receptor
The procedures described in Neuroimmunomodulation (1994, 1, p. 66-73) and Invest. Opthalmol. Vis. Sci. (1996, 37, p. 805-813) were modified and used. In brief, cytosol preparations of human recombinant glucocorticoids receptor (GR) and human recombinant progesterone receptor-B (PRB) were purchased from Invitrogen (Carlsbad, Calif.), and a cytosol preparation of human recombinant mineralocorticoid receptor (MR) was prepared by our company (Yokohama, JP). MR cDNA was cloned into a baculovirus expression vector and expressed in insect cell Sf9. The procedures described in J. Biol. Chem. (1991, 266, p. 18072-18081), Proc. Natl. Acad. Sci. USA (1991, 88, p. 10681-10685) and Bac-to-Bac (registered trade mark) Baculovirus Expression Systems technical manual (Invitrogen) were partly modified and used as the procedures for MR gene cloning up to preparation of recombinant receptor cytosol. [^3H]-Dexamethasone (Dex, specific activity 91.0 Ci/mmol) was purchased from GE Healthcare (Buckinghamshire, UK), and [^3H]-progesterone (Prog, specific activity 103 Ci/mmol) and [3H]-aldosterone (Ald, specific activity 87.9 Ci/mmol) were each purchased from PerkinElmer (Boston, Mass.). Polypropylene round-bottomed 96 well plate was obtained from ABgene (Epsom, UK). Dimethyl Sulfoxide (DMSO) and hydrochloric acid were obtained from Kanto Chemical (TOKYO, JP). Trizma Base (Tris), Bovine Serum Albumin (BSA) and Sodium tungstate dihydrate were obtained from Sigma Chemicals (St. Louis, Mo.). Dithiothreitol (DTT) and Dextran 70 were obtained from GE Healthcare (Buckinghamshire, UK). Glycerol was obtained from Junsei Chemical (TOKYO, JP). Norit® “SX-II” was obtained from Wako Pure Chemical Industries, Ltd. (Osaka, JP). MeltiLex™, A, Printed Filtermat A and Sample Bag were obtained from PerkinElmer (Boston, Mass.).
As a buffer for GR binding assay, 25 mM Tris-HCl (4° C., pH 7.4)/1 mM EDTA·2Na/1 mM DTT/0.1% BSA was prepared and used. As buffers for PRB and MR binding assay, 10 mM Tris-HCl (4° C., pH 7.4)/1 mM DTT/0.1% BSA/10% glycerol and 20 mM Tris-HCl (4° C., pH 7.4)/1 mM EDTA·2Na/10% glycerol/20 mM sodium tungstate were respectively prepared and used. As dextran-coated charcoal (DCC) for B/F separation, 0.75% Dextran 70/0.75% Norit® SX-II/10 mM Tris-HCl (4° C., pH 7.4) was prepared and used.
Compound storage solutions (5-20 mM) were prepared using DMSO. The storage solutions were diluted with DMSO to 0.1 mM (for GR) and 0.3 mM (for PRB and MR), and further diluted 20-fold with distilled water to give solutions. Then, the preparations were diluted to each concentration with 5% DMSO solution. 1% DMSO was present at the time of the binding assay.
In the case of PRB binding assay, [^3H]-Prog (about 5 nM), PRB cytosol (concentration of function receptor: about 4 pmol/mL), a test compound and a binding buffer were mixed in a total volume of 50 μL, and the mixture was stood at 4° C. for 30 min or longer. A specific binding was defined to be the difference in the [^3H]-Prog binding between the presence and the absence of 1 μM unlabeled Prog.
After the reaction, 50 μL of DCC was added to each well and blended. Thereafter, the mixture was stood at 4° C. for 10 min. The plate was applied to high-speed cooling centrifuge under the conditions of 4° C., 2000 rpm, 5 min to perform B/F separation. A given amount of the supernatant was recovered, which was spotted on Filtermat A of 96 well format (PerkinElmer) and rapidly dried at a high temperature. Then, solid scintillator MeltiLex A (PerkinElmer) was melted on Filtermat A. The mixture was placed in a Sample Bag (PerkinElmer), and the level of radioactivity was measured by plate reader 1450 Micro Beta TRILUX (PerkinElmer).
Measurement of Inhibition Constant (Ki)
Consider `C=CCC1(C)C(=O)C(C)(C)Nc2c1cc(-c1cccc3cc[nH]c13)c1c2OCO1` (stereo not drawn) [Example 78, 6-allyl-4-(1H-indol-7-yl)-6,8,8-trimethyl-6,7,8,9-tetrahydro-[1,3]dioxolo[4,5-h]quinolin-7-one], for which the Ki was over 1250 nM.

As to `CC1(C)Nc2c(cc(-c3cccc4nncn34)c3c2CCC3)C(C)(C)C1=O` [Example 17, 2,2,4,4-tetramethyl-6-([1,2,4]triazolo[4,3-a]pyridin-5-yl)-2,3,4,7,8,9-hexahydro-1H-cyclopenta[h]quinolin-3-one], the Ki is over 1250 nM.

The same assay, now with this note: [3H]-Prog about 5 nM, PRB cytosol, 4° C.; Cheng-Prusoff, Kd about 3.5 nM; read-out: PR (Ki: nM).
In the case of `Cc1noc(C)c1-c1cc2c(c3c1OCC3)NC(C)(C)C(=O)C2(C)C` [Example 84, 6-(3,5-dimethylisoxazol-4-yl)-2,2,4,4-tetramethyl-1,2,3,4,8,9-hexahydro-furo[2,3-h]quinolin-3-one], the inhibition constant Ki is over 1250 nM.

Take `Cc1noc(C)c1-c1cc2c(c3c1OCO3)NC(C)(C)C(=O)C2(C)C` [Example 69, 4-(3,5-dimethylisoxazol-4-yl)-6,6,8,8-tetramethyl-6,7,8,9-tetrahydro-[1,3]dioxolo[4,5-h]quinolin-7-one]: the Ki was over 1250 nM.

For `Cc1noc(C)c1-c1cc2c(c3c1C(=O)CC3)NC(C)(C)C(=O)C2(C)C` [Example 104, 6-(3,5-dimethylisoxazol-4-yl)-2,2,4,4-tetramethyl-2,3,4,7,8,9-hexahydro-1H-cyclopenta[h]quinoline-3,7-dione], the Ki is over 1250 nM.

Regarding `CC1(C)Nc2c(cc(-c3ccnc4ncccc34)c3c2CCO3)C(C)(C)C1=O` [Example 92, 2,2,4,4-tetramethyl-6-([1,8]naphthyridin-4-yl)-1,2,3,4,8,9-hexahydro-furo[2,3-h]quinolin-3-one], the Ki is over 1250 nM.

With `CC1(C)Nc2c(cc(-c3cccc4ncccc34)c3occc23)C(C)(C)C1=O` [Example 101, 2,2,4,4-tetramethyl-6-(quinolin-5-yl)-1,2,3,4-tetrahydro-furo [2,3-h]quinolin-3-one], the Ki worked out at 1220 nM.

On to `CC1(C)Nc2c(cc(-c3ccnc4ncccc34)c3occc23)C(C)(C)C1=O` [Example 102, 2,2,4,4-tetramethyl-6-([1,8]naphthyridin-4-yl)-1,2,3,4-tetrahydro-furo[2,3-h]quinolin-3-one], for which the Ki was over 1250 nM.

`CC1(C)Nc2c(cc(-c3cccc4nccn34)c3c2OC(F)(F)O3)C(C)(C)C1=O` [Example 82, 2,2-difluoro-4-(imidazo[1,2-a]pyridin-5-yl)-6,6,8,8-tetramethyl-6,7,8,9-tetrahydro-[1,3]dioxolo[4,5-h]quinolin-7-one]: the Ki is over 1250 nM.

On to `CCC1(C)C(=O)C(C)(C)Nc2c1cc(-c1cccc3nccn13)c1c2CCC1` (stereo not drawn) [Example 58, 4-ethyl-6-(imidazo[1,2-s]pyridin-5-yl)-2,2,4-trimethyl-2,3,4,7,8,9-hexahydro-1H-cyclopenta[h]quinolin-3-one], for which the Ki worked out at 1010 nM.

For the compound `CC1(C)Nc2c(cc(-c3ccnc4ncccc34)c3c2CCC3)C(C)(C)C1=O` [Example 21, 2,2,4,4-tetramethyl-6-([1,8]naphthyridin-4-yl)-2,3,4,7,8,9-hexahydro-1H-cyclopenta[h]quinolin-3-one], the Ki is over 1250 nM.

As to `Cc1onc(CO)c1-c1cc2c(c3ccoc13)NC(C)(C)C(=O)C2(C)C` [Example 94, 6-(3-hydroxymethyl-5-methylisoxazol-4-yl)-2,2,4,4-tetramethyl-1,2,3,4-tetrahydro-furo[2,3-h]quinolin-3-one], the inhibitory constant (Ki) is over 1250 nM.

For `Cc1nnn(C)c1-c1cc2c(c3c1CCC3)NC(C)(C)C(=O)C2(C)C` [Example 4, 6-(3,5-dimethyl-3H-[1,2,3]triazol-4-yl)-2,2,4,4-tetramethyl-2,3,4,7,8,9-hexahydro-1H-cyclopenta[h]quinolin-3-one], the inhibition constant Ki was over 1250 nM.

For the compound `CC1(C)Nc2c(cc(-c3cccc4nccn34)c3c2OCO3)C(C)(C)C1=O` [Example 71, 4-(imidazo[1,2-a]pyridin-5-yl)-6,6,8,8-tetramethyl-6,7,8,9-tetrahydro-[1,3]dioxolo[4,5-h]quinolin-7-one], the Ki was over 1250 nM.

Regarding `CC1(C)Nc2c(cc(-c3cccc4ncccc34)c3c2CCC3)C(C)(C)C1=O` [Example 20, 2,2,4,4-tetramethyl-6-(quinolin-5-yl)-2,3,4,7,8,9-hexahydro-1H-cyclopenta[h]quinolin-3-one], the Ki is over 1250 nM.

Regarding `CC1(C)Nc2c(cc(-c3cccc4nccn34)c3c2CCC3)C(C)(C)C1=O` [Example 14, 6-(imidazo[1,2-a]pyridin-5-yl)-2,2,4,4-tetramethyl-2,3,4,7,8,9-hexahydro-1H-cyclopenta[h]quinolin-3-one], the Ki was over 1250 nM.

For `C=CCC1(C)C(=O)C(C)(C)Nc2c1cc(-c1ccc(O)cc1C)c1c2CCC1` (stereo not drawn) [Example 50, 4-allyl-6-(4-hydroxy-2-methylphenyl)-2,2,4-trimethyl-2,3,4,7,8,9-hexahydro-1H-cyclopenta[h]quinolin-3-one], the Ki was over 1250 nM.

As to `CC1(C)Nc2c(cc(-c3cncc4nccn34)c3occc23)C(C)(C)C1=O` [Example 100, 6-(imidazo[1,2-a]pyrazin-5-yl)-2,2,4,4-tetramethyl-1,2,3,4-tetrahydro-furo[2,3-h]quinolin-3-one], the Ki is over 1250 nM.

With `Cc1noc(C)c1-c1cc2c(c3c1CCC3)NC(C)(C)C(=O)C2(C)C` [Example 2, 6-(3,5-dimethylisoxazol-4-yl)-2,2,4,4-tetramethyl-2,3,4,7,8,9-hexahydro-1H-cyclopenta[h]quinolin-3-one], the Ki was over 1250 nM.

For the compound `CC1(C)Nc2c(cc(-c3cccc4nccn34)c3occc23)C(C)(C)C1=O` [Example 98, 6-(imidazo[1,2-a]pyridin-5-yl)-2,2,4,4-tetramethyl-1,2,3,4-tetrahydro-furo[2,3-h]quinolin-3-one], the Ki turned out to be 1050 nM.

With `C=C1C(C)(C)Nc2c(cc(-c3c(C)ncn3C)c3c2CCC3)C1(C)C` [Example 29, 6-(3,5-dimethyl-3H-imidazol-4-yl)-2,2,4,4-tetramethyl-3-methylene-2,3,4,7,8,9-hexahydro-1H-cyclopenta[h]quinoline], the Ki was over 1250 nM.

Usually Ki stands for a dissociation constant, usually derived from enzyme kinetics or from competition with a known ligand.
